On the set-up of data set [1]: method as in PMID 23515079. Particulars: cited from earlier work.
In a further data set the test system is D6. Details: method as in PMID 24720377. The conditions noted are these: strain D6; cited from earlier work.
The next data set deals with Tm90-C2B. Further details: method as in PMID 24720377. Particulars: strain Tm90-C2B; cited from earlier work.
For the next data set, the system named is Dd2. Details: method as in PMID 24720377. Particulars: strain Dd2; cited from earlier work.
The subject of data set [2] is human hepatoma-derived HepG2 cells. Details: method as in PMID 24720377. Particulars: read-out: Cytotox. IC50; cited from earlier work.
In data set [3] the test system is chloroquine-sensitive Plasmodium falciparum strain 3D7 (MRA-102). Briefly: In vitro screening against chloroquine-sensitive P. falciparum 3D7. The format is cell-based. On the procedure: (§1) The ELQs 14–17 were tested against the chloroquine-sensitive Plasmodium falciparum strain 3D7 (MRA-102), as provided by the MR4 Unit of the American Type Culture Collection (ATCC, Manassas, VA, USA). Details of the assay have been previously published. Cytotoxicity IC50 values for 14–17 were obtained on human BJ fibroblasts as previously described. [table]

A short description of data set [4]: Cytotoxicity on BJ fibroblasts, CTG reagent. Particulars: human BJ fibroblasts, 72 h exposure at 37 °C, read-out: Cytotox. IC50. The format is cell-based. As for the experimental part:
as §1

The nature of data set [5]: Kinetic (report: thermodynamic) solubility in pH 7.4 phosphate buffer, quantitative LC-MS. The format is physicochemical. Particulars: 23 °C.
Assay in data set [6]: as above
Particulars: phosphate buffer pH 7.4, room temperature, LC-MS (supplementary report); for solubility at 20 h: phosphate buffer, 23 °C, pH 7.4, aqueous buffer, thermodynamic from solid. The format is physicochemical. As for the experimental part: Title: Thermodynamic Solubility Study in Phosphate Buffer 7.4 Date: 02/24/2023 […]
The goal of this study is to determine the thermodynamic solubility values for compounds: JS -13, JS-14, JS-17 and JS-18 in phosphate buffer pH 7.4.
Compound ID Solubility (µM) Solubility (mg/mL)
The scope of the thermodynamic (equilibrium) solubility experiment is to investigate the solubility of the compounds in a saturated solution. For this method, phosphate buffer is added to solid compound and mixed at room temperature for […] to ensure that equilibrium is achieved. To determine concentrations to generate calibration curves and for the equilibrated compounds (in buffer) a general LC-MS method was developed. The method includes a high-resolution separation by a UPLC unit as well as a high sensitivity ion detection by a mass spectrometer equipped with an electrospray ionization probe. For calibration curves the compounds were dissolved in DMSO and diluted by ACN. The supernatant of the equilibrated samples, after a 2-step centrifugation process, were also diluted by ACN to ensure full solubilization.
(1 picture or pasted object on this page, not shown here)
The experiment was carried out as recommended by AstraZeneca’s Mechanistic Biology & Profiling, Discovery Sciences, R&D group (AstraZeneca, Gothenburg, Sweden). The method was published in ASSAY and Drug Development Technologies; Title: “A Fully Integrated Assay Panel for Early Drug Metabolism and […]
• The experiment was performed on December 3, 2022
A Shimadzu LC-40D XR HPLC system equipped with a PDA detector (Model: SPD-M40) and connected to an LCMS-2020 mass spectrometer was utilized for determining sample concentrations. For HPLC separation an XBridge C18 column (4.6x50 mm, […] particle size) from Waters Inc. was used, the column oven temperature was set at 40°C. To determine the concentration of the compounds, eluent A containing 0.1% trifluoroacetic acid (TFA) in water, eluent B containing 0.1% TFA in acetonitrile and a linear gradient (5-100% B in 3 min) were utilized. Molecular ions (MH+) were generated by combined ESI and APCI ionization methods and collected by a DUIS detector. The mass spectrometer was calibrated by standards provided by Shimadz u Scientific Instruments. Single ion monitoring (SIM) methods were used to maximize sensitivity for each compound as described in Table […]
Compound ID Primary Ion Secondary Ion Note
+ + 414.15+ is identical to MH+ generated
• To establish calibration curves, the weighted compounds were dissolved in 100 µL of dimethyl sulfoxide (DMSO) and diluted by 400 µL of acetonitrile (ACN). The stock solution was further diluted by ACN (5x, in 5 steps). For all LC-MS experiments 5 µL sample was injected. To perform equilibration studies, 500 µL phosphate buffer was added to each weighted compound. The results slurries were stirred at room temperature for 20 hr. After equilibration, the samples were transferred to […]
Eppendorf tubes and centrifuged for 30 min at 2,000 x g. 200 µL of the supernatant of each sample was transferred and centrifuged again f or 30 min at 2,000 x g. Dilution and LC-MS analyses were performed as described for the calibration curves.
ACN, DMSO and HPLC quality water were purchased from MilliporeSigma Inc.
TFA (99.9% purity) was from Chem-Impex International Inc.
• The data was archived in the MD&S Laboratory electronic notebook (ChemCart, DeltaSoft Inc.) on […]
• Data processing software used: Microsoft Office 365 – Excel.
3.1 Structures, molecular weights
Compound Chemical Exact SMILE
[C@]4([H])OC3)C=C2)=C(C)NC5=CC=C(Cl)C=C51
[H])OC3)C=C2)=C(C)NC5=CC=C(Cl)C=C51
4([H])OC3)C=C2)=C(C)NC5=CC=C(Cl)C=C51
C@]4([H])OC3)C=C2)=C(C)NC5=CC=C(Cl)C=C51
Table 2. Compound IDs, chemical formulas, exact (monoisotopic) molecular weights, SMILE notations

[7] abbreviates: chloroquine-sensitive P. falciparum strain 3D7, read-out: EC50.
Setting [8] is: P. falciparum strain 3D7, read-out: EC50 (antimalarial potency).

Values after ≈ are worked out from the molar mass of the structure shown. “Also recorded” adds a separate entry of the source. Read-outs that look alike come from different tables or passages of the source. Some results are limits rather than exact numbers.

As to `COc1cc2[nH]c(C)c(-c3ccc(Oc4ccc(OC(F)(F)F)cc4)cc3)c(=O)c2cc1Cl` [C00001], the “Kinetic Solubility” value in data set [1] was 16 µM. Moreover, the EC50 in the data set on D6 is 2.2 nM; with Tm90-C2B it was 1.4 nM; in the data set on Dd2, 2.5 nM. Further, the IC50 in data set [2] was above 10000 nM.

In the case of `Cc1[nH]c2ccc(Cl)cc2c(=O)c1-c1ccc(Oc2ccc(OC(F)(F)F)cc2)cc1` [C00002], the EC50 is 3.2 nM in the data set on D6, 2.3 nM with Tm90-C2B and 5.6 nM in the data set with Dd2. Also, the half-inhibitory concentration (IC50) in data set [2] was above 10000 nM.

For the compound `CC(=O)OC1COC2C(Oc3ccc(-c4c(C)[nH]c5ccc(Cl)cc5c4=O)cc3)COC12` (centres unmarked) [C00003], in data set [3] (setting [7]), the EC50 was above 1000 nM. Further, in data set [4], the IC50 at 72 h was above 100000 nM.

In [5], `Cc1[nH]c2ccc(Cl)cc2c(=O)c1-c1ccc(OC2COC3C(O)COC23)cc1` (centres unmarked) [C00004] displayed a thermodynamic solubility at 20 h of 95 µM (≈ 39.3 µg/mL). The half-maximal effective concentration (EC50) in [3] (setting [7]) is above 1000 nM. The IC50 at 72 h in data set [4] was above 100000 nM.

For `COC1COC2C(Oc3ccc(-c4c(C)[nH]c5ccc(Cl)cc5c4=O)cc3)COC12` (centres unmarked) [C00005], the thermodynamic solubility at 20 h in data set [5] is 22 µM (≈ 9.41 µg/mL). In addition, the EC50 in data set [3] (setting [7]) was above 1000 nM. Also, the concentration for half-maximal inhibition (IC50) at 72 h in data set [4] was above 100000 nM.

`COCCOC1COC2C(Oc3ccc(-c4c(C)[nH]c5ccc(Cl)cc5c4=O)cc3)COC12` (centres unmarked) [C00006] displayed a solubility (thermodynamic) at 20 h in [5] of 127 µM (≈ 59.9 µg/mL). For the same compound, in [3] (setting [7]), the EC50 was above 1000 nM. In data set [4], the IC50 at 72 h was above 100000 nM.

Compound `CC(=O)O[C@H]1CO[C@H]2[C@@H]1OC[C@@H]2Oc1ccc(-c2c(C)[nH]c3ccc(Cl)cc3c2=O)cc1` [Compound 14, (3S,3aR,6S,6aR)-6-(4-(6-Chloro-2-methyl-4-oxo-1,4-dihydroquinolin-3-yl)phenoxy)hexahydrofuro[3,2-b]furan-3-yl Acetate] came in with a melting point of 298 to 299 °C. In addition, the EC50 in data set [3] (setting [8]) was above 1000 nM. In addition, the “Solubility (M)” value in [6] (listed as JS-13) was “Unstable in buffer; also recorded: hydrolyzed under equilibrating conditions”.

Turning to `Cc1[nH]c2ccc(Cl)cc2c(=O)c1-c1ccc(O[C@H]2CO[C@H]3[C@@H]2OC[C@@H]3O)cc1` [Compound 15, 6-Chloro-3-(4-(((3S,3aR,6S,6aR)-6-hydroxyhexahydrofuro[3,2-b]furan-3-yl)oxy)phenyl)-2-methylquinolin-4(1H)-one], the EC50 in data set [3] (setting [8]) is above 1000 nM. Moreover, the solubility at 20 h in [6] (read-out: Solubility) came to 95 µM; in [6] (read-out: Solubility (mg/mL)) it was 0.039 mg/mL.

Turning to `CO[C@H]1CO[C@H]2[C@@H]1OC[C@@H]2Oc1ccc(-c2c(C)[nH]c3ccc(Cl)cc3c2=O)cc1` [Compound 16, 6-Chloro-3-(4-(((3S,3aR,6S,6aR)-6-methoxyhexahydrofuro[3,2-b]furan-3-yl)oxy)phenyl)-2-methylquinolin-4(1H)-one], the half-maximal effective concentration (EC50) in data set [3] (setting [8]) is above 1000 nM. In addition, the figures for the solubility at 20 h in data set [6] (read-out: Solubility) and in [6] (read-out: Solubility (mg/mL)) were 22 µM and 0.009 mg/mL, respectively.

As to `COCCO[C@H]1CO[C@H]2[C@@H]1OC[C@@H]2Oc1ccc(-c2c(C)[nH]c3ccc(Cl)cc3c2=O)cc1` [Compound 17, 6-Chloro-3-(4-(((3S,3aR,6S,6aR)-6-(2-methoxyethoxy)hexahydrofuro[3,2-b]furan-3-yl)oxy)phenyl)-2-methylquinolin-4(1H)-one], the EC50 in data set [3] (setting [8]) was above 1000 nM. Also, the solubility at 20 h was 127 µM in [6] (read-out: Solubility) and 0.06 mg/mL in data set [6] (read-out: Solubility (mg/mL)).

As a reminder, the EC50 is the concentration needed to bring the measured effect to its halfway point. Usually IC50 stands for the concentration needed to halve the response being measured. In general, solubility (thermodynamic) refers to solubility found after equilibrating the solid with the medium. As a reminder, the melting point is the temperature, or range, at which the solid turns liquid.

(Values after PMC11314205, “Incorporation of an Isohexide Subunit into the Endochin-like Quinolone Scaffold” (Molecules, 2024).)
